Publication PMC7187627 (Antimicrobial Agents and Chemotherapy, 2019)
“Also recorded” adds a separate entry of the source.

Test: Safety and tolerability (adverse events, laboratory tests, ECG), multiple-ascending-dose phase 1 study
Type: in vivo
From the text: Subjects were monitored closely with serial physical examinations, blood evaluations, and 12-lead ECGs. Subjects underwent safety laboratory testing, including measurement of blood cell counts (white blood cell [WBC] with differential, hemoglobin, and platelets), serum chemistry (sodium, potassium, chloride, calcium, bicarbonate, glucose, creatinine, blood urea nitrogen [BUN], creatine kinase [CK], aspartate aminotransferase [AST], alanine aminotransferase [ALT], alkaline phosphatase [ALP], total bilirubin, protein, albumin, amylase, and lipase) and urinalysis (protein, blood, and glucose). Study halting criteria had been established and were reviewed by an independent safety monitor (ISM) and the Safety Monitoring Committee (SMC) prior to proceeding with dosing within a cohort or to the next cohort.
The safety population included all subjects who received at least one dose of the study drug. The safety and tolerability of CRS3123 were evaluated by the sequential review of reported adverse events (AEs), changes from baseline in physical examination findings, vital sign measurements, safety laboratory tests (hematology, clinical chemistry, and urinalysis), and key 12-lead ECG findings. All safety assessments were summarized with descriptive statistics or frequency counts.
The period of observation for AE reporting began on day 1 at the time of study drug administration and continued through the final visit.
All AEs were coded to system organ class (SOC) and preferred term (PT) using the Medical Dictionary for Regulatory Activities (MedDRA), version 17.0 (https://www.meddra.org/). A treatment-emergent AE (TEAE) was defined as any AE that occurred during the study observation period (i.e., from day 1 at the time of study drug administration through the final visit). An AE with a partial onset date was classified as a TEAE if the reported partial onset date could not definitely be identified as before the date of study drug administration. Any AE with a missing onset date or missing time on day of study drug administration was classified as a TEAE.
To count the overall number of subjects who experienced each TEAE and calculation of an occurrence rate, a subject experiencing multiple occurrences of an AE was counted only once for that PT. Similarly, if a subject experienced multiple TEAEs within the same SOC, that subject was counted once to calculate an occurrence rate for the SOC. To count the number of subjects who experienced each TEAE by severity classification (mild, moderate, severe, and life-threatening) and calculate an occurrence rate, a subject experiencing multiple occurrences of an AE of the same severity was counted once in that particular severity classification for that PT. If a subject experienced multiple occurrences of an AE of differing severities, only the most severe occurrence within each PT was counted.

[1] = 200, 400, 600 mg orally twice daily for 10 days
[2] = all TEAEs, Cohort A, 200 mg Q12h (n = 8)

O=c1cc(NCCCN[C@@H]2CCOc3c(Br)cc(Br)cc32)[nH]c2ccsc12 [CRS3123]
QTcF interval (12-lead ECG, all doses): no QTcF interval changes; also recorded: no prolongation of the QTcF interval
deaths, serious adverse events, severe TEAEs [1]: no serious adverse events (SAEs) or severe treatment-emergent adverse events (TEAEs) reported
overall safety and tolerability [1]: generally safe and well tolerated
proportion of subjects reporting at least one treatment-related AE (active groups (placebo 33.3%)): 12.5 % subjects
No. (%) of subjects: Alanine aminotransferase increased (all TEAEs, All active (n = 24)): 3 (12.5)
No. (%) of subjects: Amylase increased (all TEAEs, All active (n = 24)): 3 (12.5)
No. (%) of subjects: Anxiety (all TEAEs, All active (n = 24)): 1 (4.2)
No. (%) of subjects: Arthropod bite (all TEAEs, All active (n = 24)): 1 (4.2)
No. (%) of subjects: Aspartate aminotransferase increased (all TEAEs, All active (n = 24)): 2 (8.3)
No. (%) of subjects: Blood bilirubin increased (all TEAEs, All active (n = 24)): 1 (4.2)
No. (%) of subjects: Blood calcium increased (all TEAEs, All active (n = 24)): 1 (4.2)
No. (%) of subjects: Blood potassium increased (all TEAEs, All active (n = 24)): 1 (4.2)
No. (%) of subjects: Blood pressure, diastolic, decreased (all TEAEs, All active (n = 24)): 1 (4.2)
No. (%) of subjects: Blood pressure, diastolic, increased (all TEAEs, All active (n = 24)): 1 (4.2)
No. (%) of subjects: Blood pressure, systolic, decreased (all TEAEs, All active (n = 24)): 0 (0.0)
No. (%) of subjects: Blood pressure, systolic, increased (all TEAEs, All active (n = 24)): 1 (4.2)
No. (%) of subjects: Diarrhea (all TEAEs, All active (n = 24)): 2 (8.3)
No. (%) of subjects: Dry skin (all TEAEs, All active (n = 24)): 1 (4.2)
No. (%) of subjects: Dysgeusia (all TEAEs, All active (n = 24)): 1 (4.2)
No. (%) of subjects: Ear and labyrinth disorders (system organ class) (all TEAEs, All active (n = 24)): 1 (4.2)
No. (%) of subjects: Ear discomfort (all TEAEs, All active (n = 24)): 1 (4.2)
No. (%) of subjects: Erythema (all TEAEs, All active (n = 24)): 1 (4.2)
No. (%) of subjects: Gastrointestinal disorders (system organ class) (all TEAEs, All active (n = 24)): 2 (8.3)
No. (%) of subjects: General disorders and administration site conditions (system organ class) (all TEAEs, All active (n = 24)): 1 (4.2)
No. (%) of subjects: Headache (all TEAEs, All active (n = 24)): 2 (8.3)
No. (%) of subjects: Hemoglobin decreased (all TEAEs, All active (n = 24)): 4 (16.7)
No. (%) of subjects: Infections and infestations (system organ class) (all TEAEs, All active (n = 24)): 1 (4.2)
No. (%) of subjects: Infusion site thrombosis (all TEAEs, All active (n = 24)): 1 (4.2)
No. (%) of subjects: Injury, poisoning, and procedural complications (system organ class) (all TEAEs, All active (n = 24)): 1 (4.2)
No. (%) of subjects: Investigations (system organ class) (all TEAEs, All active (n = 24)): 15 (62.5)
No. (%) of subjects: Lipase increased (all TEAEs, All active (n = 24)): 5 (20.8)
No. (%) of subjects: Musculoskeletal and connective tissue disorders (system organ class) (all TEAEs, All active (n = 24)): 1 (4.2)
No. (%) of subjects: Myalgia (all TEAEs, All active (n = 24)): 1 (4.2)
No. (%) of subjects: Nervous system disorders (system organ class) (all TEAEs, All active (n = 24)): 3 (12.5)
No. (%) of subjects: Oropharyngeal pain (all TEAEs, All active (n = 24)): 1 (4.2)
No. (%) of subjects: Psychiatric disorders (system organ class) (all TEAEs, All active (n = 24)): 1 (4.2)
No. (%) of subjects: Respiratory, thoracic, and mediastinal disorders (system organ class) (all TEAEs, All active (n = 24)): 2 (8.3)
No. (%) of subjects: Skin and subcutaneous tissue disorders (system organ class) (all TEAEs, All active (n = 24)): 2 (8.3)
No. (%) of subjects: Subjects with TEAEs (all TEAEs, All active (n = 24)): 20 (83.3)
No. (%) of subjects: Throat irritation (all TEAEs, All active (n = 24)): 1 (4.2)
No. (%) of subjects: Upper respiratory tract infection (all TEAEs, All active (n = 24)): 1 (4.2)
No. (%) of subjects: White blood cell count increased (all TEAEs, All active (n = 24)): 0 (0.0)
No. (%) of subjects: Alanine aminotransferase increased [2]: 1 (12.5)
No. (%) of subjects: Amylase increased [2]: 1 (12.5)
No. (%) of subjects: Anxiety [2]: 1 (12.5)
No. (%) of subjects: Arthropod bite [2]: 1 (12.5)
